Test results taken from the supplement of paper PMC11451515.

Tests used:
Experiment in all cases: AUC of viability dose-response curve (% viability x log10 dose units); higher = less sensitive
Conditions in all cases: 48 h
[1] = tested on: P12-Ichikawa
In short: (§1)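 Seeding of medium-adapted leukemia cells was at 500 or 1000 cells/well in 1536-well plates, followed by 48 h at 37°C with library compounds in DMSO at 11 threefold doses from 47 μM to 0.79 nM. CellTiter-Glo One luminescence was normalised per plate to DMSO and cell-free wells and fitted as a four-parameter log-logistic function of log10 dose. Area under the curve was integrated by trapezoidal rule, with curves exceeding full viability scaled and curves failing quality control removed.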

[2] = tested on: NOMO1
In short: as §1

[3] = tested on: SEM cells
In short: as §1

[4] = RPMI 5 mM glucose + 10% dialyzed FBS

Row | Compound | AUC of viability dose-response curve ([1]; HPLM + 10% dialyzed FBS) | AUC of viability dose-response curve ([1]; RPMI 5 mM glucose + 10% FBS) | AUC of viability dose-response curve [1, 4] | AUC of viability dose-response curve ([2]; HPLM + 10% dialyzed FBS) | AUC of viability dose-response curve ([2]; RPMI 5 mM glucose + 10% FBS) | AUC of viability dose-response curve [2, 4] | AUC of viability dose-response curve ([3]; HPLM + 10% dialyzed FBS) | AUC of viability dose-response curve ([3]; RPMI 5 mM glucose + 10% FBS) | AUC of viability dose-response curve [3, 4]
1 | CCNC(=O)c1noc(-c2cc(C(C)C)c(O)cc2O)c1-c1ccc(CN2CCOCC2)cc1 | 333 | 302 | 312 | 253 | 240 | 248 | 225 | 224 | 232
2 | CCCCCCCN(CC)CCCC(O)c1ccc(NS(C)(=O)=O)cc1.CCCCCCCN(CC)CCCC(O)c1ccc(NS(C)(=O)=O)cc1.O=C(O)/C=C/C(=O)O (stereo unspecified) | 460 | 457 | 461 | 471 | 463 | 464 | 446 | 421 | 443
3 | COC(=O)Nc1nc2cc(Sc3ccccc3)ccc2[nH]1 | 377 | 376 | 382 | 377 | 391 | 387 | 377 | 365 | 371
4 | CC(=O)[C@H]1CC[C@H]2[C@@H]3C/C=C4/C[C@@H](O)CC[C@]4(C)[C@H]3CC[C@]12C | 462 | 461 | 463 | 463 | 472 | 462 | 455 | 470 | 460
5 | CCCCc1oc2ccccc2c1C(=O)c1cc(I)c(OCCN(CC)CC)c(I)c1 | 451 | 448 | 463 | 442 | 450 | 457 | 458 | 465 | 454
6 | CC1CCN(c2cc(N3CCN(C)CC3)ccc2NC(=O)c2cc(C#N)c[nH]2)CC1 | 450 | 453 | 453 | 457 | 463 | 454 | 456 | 444 | 451
7 | COc1cc([S+](C)(=O)[O-])ccc1Nc1nc2ccc(-c3ccc(NC(=O)[C@H](C)c4ccc(F)cc4)cc3)cn2n1 | 396 | 386 | 394 | 430 | 439 | 436 | 377 | 369 | 384
8 | CNC(=O)c1cc(COc2nnc(Nc3ccc(Cl)cc3)c3ccoc23)ccn1 | 440 | 458 | 440 | 449 | 446 | 452 | 452 | 446 | 436
9 | NC(=O)Cc1cccc(C(=O)c2ccccc2)c1N | 468 | 456 | 455 | 461 | 435 | 436 | 433 | 404 | 428
10 | CN1C(=O)\C(=C/C2=C1N=C(NC3CCOCC3)N=C2)OC4=C(F)C=C(F)C=C4 | 428 | 429 | 420 | 420 | 406 | 413 | 439 | 463 | 430
11 | CN1CCC(=C2c3ccccc3CCc3sccc32)CC1 | 472 | 471 | 465 | 460 | 477 | 466 | 453 | 459 | 464
12 | COC(=O)[C@@H]1CC2=CC(=O)CC[C@]2(C)[C@@]23O[C@@H]2C[C@@]2(C)[C@@H](CC[C@@]24CCC(=O)O4)[C@H]13 | 458 | 446 | 451 | 456 | 467 | 450 | 444 | 456 | 421
13 | c1cc(N[C@@H]2CCNC2)nc(-c2cnc3ccc(-c4cn[nH]c4)cn23)c1 | 471 | 457 | 437 | 460 | 467 | 436 | 386 | 399 | 367
14 | Oc1ccc(C2CNCCc3c2cc(O)c(O)c3Cl)cc1 (stereo unspecified) | 453 | 456 | 427 | 449 | 425 | 454 | 441 | 426 | 438
15 | CCCC[N+]1(C)[C@@H]2CC(OC(=O)[C@H](CO)c3ccccc3)C[C@H]1[C@@H]1O[C@@H]12 (stereo partly specified) | 452 | 450 | 460 | 420 | 431 | 450 | 462 | 471 | 475
16 | NC(=O)c1c(OCc2c(F)cc(Br)cc2F)nsc1NC(=O)NCCCCN1CCCC1 | 430 | 445 | 436 | 370 | 450 | 421 | 415 | 397 | 435
17 | O=C(O)CCc1ccc(NCc2cccc(Oc3ccccc3)c2)cc1 | 464 | 449 | 471 | 446 | 441 | 444 | 406 | 439 | 413

Row | Compound | AUC of viability dose-response curve ([1]; HPLM + 10% dialyzed FBS) | AUC of viability dose-response curve ([1]; RPMI 5 mM glucose + 10% FBS) | AUC of viability dose-response curve [1, 4] | AUC of viability dose-response curve ([2]; HPLM + 10% dialyzed FBS) | AUC of viability dose-response curve ([2]; RPMI 5 mM glucose + 10% FBS) | AUC of viability dose-response curve [2, 4] | AUC of viability dose-response curve ([3]; HPLM + 10% dialyzed FBS) | AUC of viability dose-response curve ([3]; RPMI 5 mM glucose + 10% FBS) | AUC of viability dose-response curve [3, 4]
18 | CC(=O)OCC(CCn1cnc2cnc(N)nc21)COC(C)=O | 470 | 470 | 465 | 454 | 464 | 462 | 445 | 434 | 440
19 | O=C(N[C@H]1CN2CCC1CC2)c1ccc(Cl)cc1 | 467 | 469 | 466 | 462 | 470 | 469 | 457 | 439 | 468
20 | Cc1ccc(Nc2nccc(N(C)c3ccc4c(C)n(C)nc4c3)n2)cc1[S+](N)(=O)[O-] | 450 | 444 | 450 | 462 | 464 | 476 | 400 | 371 | 388
21 | CCN(CC)CCNC(=O)c1ccc2nc(-c3ccccc3)c(-c3ccc(CN4CCC(n5c(=O)[nH]c6ccccc65)CC4)cc3)nc2c1 | 355 | 380 | 358 | 354 | 400 | 399 | 246 | 221 | 243
22 | CC1(C)NC(=O)N(c2ccc([N+](=O)[O-])c(C(F)(F)F)c2)C1=O | 424 | 410 | 371 | 439 | 431 | 407 | 404 | 454 | 461
23 | CC(C)C[C@@H](C(=O)N[C@H](C(=O)OC1CCCC1)c1ccccc1)[C@H](O)C(=O)NO | 446 | 424 | 441 | 451 | 449 | 446 | 454 | 423 | 399
24 | Cc1ccc(C)c(OCCCC(C)(C)C(=O)O)c1 | 458 | 429 | 413 | 457 | 449 | 447 | 442 | 456 | 453
25 | CC(C)(OCc1nn(Cc2ccccc2)c2ccccc12)C(=O)O | 473 | 459 | 427 | 460 | 442 | 467 | 475 | 471 | 477
26 | CCCCC(F)(F)[C@@]1(O)CC[C@H]2[C@@H](CC(=O)[C@@H]2CCCCCCC(=O)O)O1 | 451 | 444 | 456 | 446 | 447 | 411 | 455 | 459 | 456
27 | Clc1ccc(C(Cn2ccnc2)OCc2ccc(Sc3ccccc3)cc2)c(Cl)c1 (stereo unspecified) | 453 | 453 | 455 | 441 | 450 | 453 | 416 | 445 | 438
28 | O=C(Nc1ccncc1)C(=O)c1cn(Cc2ccc(Cl)cc2)c2ccccc12 | 281 | 275 | 288 | 306 | 315 | 311 | 249 | 237 | 247
29 | COc1ccccc1N1CCN(CC(O)COc2cccc3ccccc23)CC1 (stereo unspecified) | 467 | 439 | 441 | 450 | 448 | 431 | 473 | 455 | 449
30 | Clc1ccc(C(Cn2ccnc2)OCc2ccsc2Cl)c(Cl)c1 (stereo unspecified) | 467 | 461 | 464 | 470 | 476 | 457 | 456 | 467 | 463
31 | NC(=O)c1ncn([C@@H]2O[C@H](CO)[C@@H](O)[C@H]2O)c1N | 467 | 447 | 455 | 468 | 469 | 465 | 443 | 372 | 458
32 | CC=CC1=C(C(=O)O)N2C(=O)[C@@H](NC(=O)[C@H](N)c3ccc(O)cc3)[C@H]2SC1.O | 415 | 416 | 429 | 370 | 342 | 376 | 395 | 460 | 447
33 | CC/C(=C(\c1ccccc1)c1ccc(OCCN(C)C)cc1)c1ccccc1 | 472 | 461 | 465 | 457 | 458 | 450 | 434 | 425 | 435
34 | CCC[S+](=O)([O-])Nc1ccc(F)c(C(=O)c2c[nH]c3ncc(-c4ccc(Cl)cc4)cc23)c1F | 455 | 452 | 446 | 445 | 477 | 461 | 470 | 474 | 464
